Data as given in ChEMBL document CHEMBL5584248, “Synthesis and biological characterization of an orally bioavailable lactate dehydrogenase-A inhibitor against pancreatic cancer” (Eur J Med Chem, 2024).
Values belong to the molecule of their own block, whether it stands above or below them. The source made the active and inactive calls. No cut-off for these calls is given here.

Tests used:
PANC-1 = assay: Antiproliferative activity against human PANC-1 cells incubated for 48 hrs by Hoechst 33342 and SYTOX green staining based confocal imaging analysis; assay type: functional, cell-based; conditions: PANC-1, 48 h
[1] = Cytotoxicity against HPNEs incubated for 48 hrs by Hoechst 33342 and SYTOX green staining based confocal imaging analysis; assay type: toxicity, cell-based; conditions: human, HPNE cells
MIA PaCa-2 [2] = assay: Antiproliferative activity against human MIA PaCa-2 cells incubated for 48 hrs by Hoechst 33342 and SYTOX green staining based confocal imaging analysis; assay type: functional, cell-based; conditions: MIA PaCa-2, 48 h
[3] = Antiproliferative activity against mouse FC-1199 cells incubated for 48 hrs by Hoechst 33342 and SYTOX green staining based confocal imaging analysis; assay type: functional, cell-based; conditions: FC-1199, 48 h
MIA PaCa-2 [4] = assay: Inhibition of basal glycolysis in human MIA PaCa-2 cells at 10 to 30 uM; assay type: functional, cell-based; conditions: dose 10-30 µM
[5] = Metabolic stability in mouse liver microsomes assessed as intrinsic clearance per mg protein; assay type: ADME, Microsome
MIA PaCa-2 [6] = assay: Synergistic antiproliferative activity against human MIA PaCa-2 cells at 20 uM incubated for 48 hrs in presence of phenformin by fluorescence based confocal imaging analysis; assay type: functional, cell-based
MIA PaCa-2 [7] = assay: Reduction in total ATP production in human MIA PaCa-2 cells at 15 to 30 uM incubated for 48 hrs by Celltiter-glo assay; assay type: functional, cell-based; conditions: dose 15-30 µM
[8] = Metabolic stability in mouse liver microsomes assessed as compound remaining after 30 mins; assay type: ADME, Microsome; conditions: read-out: Stability
MIA PaCa-2 [9] = assay: Reduction in citric acid level in human MIA PaCa-2 cells at 15 uM incubated for 24 hrs by UPLC-MS analysis; assay type: functional, cell-based
[10] = Clearance in CD1 mouse at 1 mg/kg, iv; assay type: ADME, organism-based; conditions: mouse, in vivo, iv, 1 mg/kg
[11] = Metabolic stability in human liver microsomes assessed as compound remaining after 20 mins; assay type: ADME, Microsome; conditions: read-out: Stability
[12] = Metabolic stability in mouse liver microsomes assessed as compound remaining after 10 mins; assay type: ADME, Microsome; conditions: read-out: Stability
[13] = Metabolic stability in human liver microsomes assessed as half-life; assay type: ADME, Microsome
MIA PaCa-2 [14] = assay: Reduction in total ATP production in human MIA PaCa-2 cells at 10 uM incubated for 48 hrs by Celltiter-glo assay; assay type: functional, cell-based
[15] = Lipophilicity, logP of compound; assay type: physicochemical; conditions: octanol/water
[16] = Volume of distribution in CD1 mouse at 1 mg/kg, iv; assay type: ADME, organism-based; conditions: in vivo
[17] = Half-life in CD1 mouse at 1 mg/kg, iv; assay type: ADME, organism-based; conditions: in vivo
[18] = Metabolic stability in human liver microsomes assessed as intrinsic clearance per mg protein; assay type: ADME, Microsome
[19] = Metabolic stability in mouse liver microsomes assessed as compound remaining after 60 mins; assay type: ADME, Microsome; conditions: read-out: Stability
[20] = test system: Pancreatic cancer organoid; assay: Antiproliferative activity against human Pancreatic cancer organoid after 72 hrs by MTS assay; assay type: functional, tissue-based
[21] = Metabolic stability in human liver microsomes assessed as compound remaining after 60 mins; assay type: ADME, Microsome; conditions: read-out: Stability
MIA PaCa-2 [22] = assay: Reduction in glycolytic ATP production rate in human MIA PaCa-2 cells at 15 to 30 uM incubated for 24 hrs by Seahorse assay; assay type: functional, cell-based; conditions: dose 15-30 µM
[23] = Metabolic stability in human liver microsomes assessed as compound remaining after 30 mins; assay type: ADME, Microsome; conditions: read-out: Stability
[24] = Tmax in CD1 mouse at 5 mg/kg, po; assay type: ADME, organism-based; conditions: in vivo
MIA PaCa-2 [25] = assay: Reduction in total ATP production rate in human MIA PaCa-2 cells at 15 to 30 uM incubated for 24 hrs by Seahorse assay; assay type: functional, cell-based; conditions: dose 15-30 µM
[26] = Cmax in CD1 mouse at 1 mg/kg, iv; assay type: ADME, organism-based; conditions: in vivo
[27] = Metabolic stability in mouse liver microsomes assessed as half-life; assay type: ADME, Microsome
MIA PaCa-2 [28] = assay: Reduction in lactate production in human MIA PaCa-2 cells incubated for 6 hrs by colorimetric assay; assay type: functional, cell-based; conditions: dose 15-30 µM
[29] = Metabolic stability in human liver microsomes assessed as compound remaining after 10 mins; assay type: ADME, Microsome; conditions: read-out: Stability
[30] = AUC(0 to infinity) in CD1 mouse at 1 mg/kg, iv; assay type: ADME, organism-based; conditions: in vivo
MIA PaCa-2 [31] = assay: Reduction in isocitric acid level in human MIA PaCa-2 cells at 15 uM incubated for 24 hrs by UPLC-MS analysis; assay type: functional, cell-based
[32] = Cmax in CD1 mouse at 5 mg/kg, po; assay type: ADME, organism-based; conditions: in vivo
MIA PaCa-2 [33] = assay: Reduction in intracellular lactate production in human MIA PaCa-2 cells at 15 uM incubated for 6 to 24 hrs by colorimetric assay; assay type: functional, cell-based; conditions: time 6-24 hrs
MIA PaCa-2 [34] = assay: Reduction in succinic acid level in human MIA PaCa-2 cells at 15 uM incubated for 6 hrs by UPLC-MS analysis; assay type: functional, cell-based
[35] = Metabolic stability in mouse liver microsomes assessed as compound remaining after 20 mins; assay type: ADME, Microsome; conditions: read-out: Stability
[36] = Half-life in CD1 mouse at 5 mg/kg, po; assay type: ADME, organism-based; conditions: in vivo
MIA PaCa-2 [37] = assay: Inhibition of compensatory glycolysis in human MIA PaCa-2 cells at 10 to 30 uM; assay type: functional, cell-based; conditions: dose 10-30 µM
[38] = AUC(0 to infinity) in CD1 mouse at 5 mg/kg, po; assay type: ADME, organism-based; conditions: in vivo
[39] = Thermodynamic solubility in PBS at pH 7.4; assay type: physicochemical; conditions: buffer
MIA PaCa-2 [40] = assay: Reduction in pyruvate level in human MIA PaCa-2 cells at 15 uM incubated for 6 to 24 hrs by UPLC-MS analysis; assay type: functional, cell-based; conditions: time 6-24 hrs
[41] = Oral bioavailability in CD1 mouse at 5 mg/kg; assay type: ADME, organism-based; conditions: in vivo
[42] = molecular target: L-lactate dehydrogenase A chain (Homo sapiens, UniProt P00338); assay: Inhibition of human LDH-A incubated for 10 mins in presence of […] by fluorescence based reader assay
[43] = molecular target: L-lactate dehydrogenase B chain (Homo sapiens, UniProt P07195); assay: Inhibition of human LDH-B incubated for 10 mins in presence of […] by fluorescence based reader assay
Sequence of L-lactate dehydrogenase B chain (P07195 whole entry): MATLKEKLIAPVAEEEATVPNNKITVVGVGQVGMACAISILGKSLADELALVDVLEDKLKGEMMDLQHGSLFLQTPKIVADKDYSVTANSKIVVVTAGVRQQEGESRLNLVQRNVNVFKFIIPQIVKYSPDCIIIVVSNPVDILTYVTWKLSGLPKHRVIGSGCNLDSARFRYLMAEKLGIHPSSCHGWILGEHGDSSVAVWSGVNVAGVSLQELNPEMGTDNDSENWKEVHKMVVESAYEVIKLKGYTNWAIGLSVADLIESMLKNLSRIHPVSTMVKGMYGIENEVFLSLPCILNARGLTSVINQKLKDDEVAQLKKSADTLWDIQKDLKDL

Structure (SMILES): COC(=O)C(CC(=O)Nc1ccc(C(=O)c2nccn2C)cc1)c1ccc(Cl)cc1 (stereo unspecified)
- IC50 (PANC-1): > 50 µM
- IC50 at 48 h [1]: 26.5 µM
- IC50 (MIA PaCa-2 [2]): 24.2 µM
- IC50 [3]: 23.4 µM

Structure (SMILES): Cn1ccnc1C(=O)c1ccc(NC(=O)CC(C(=O)O)c2ccc(C(F)(F)F)cc2)cc1 (stereo unspecified)
- inhibition (MIA PaCa-2 [4]): Active
- CLint [5]: < 23 µL/min/mg
- Activity (MIA PaCa-2 [6]): Active
- Activity (MIA PaCa-2 [7]): Active
- IC50 (PANC-1): 43.3 µM
- IC50 at 48 h [1]: > 50 µM
- remaining at 0.5 h [8]: 98%
- Activity (MIA PaCa-2 [9]): Active
- clearance [10]: 110 mL/min/kg
- remaining at 20 min [11]: 94.8%
- remaining at 10 min [12]: 98.6%
- t1/2 [13]: > 1 h
- Activity (MIA PaCa-2 [14]): inactive
- logP [15]: 2.47
- Vd [16]: 0.9 L/kg
- half-life [17]: 2.9 h
- CLint [18]: < 23 µL/min/mg
- remaining at 1 h [19]: 88.4%
- IC50 [20]: 32.3 µM
- remaining at 1 h [21]: 75.6%
- Activity (MIA PaCa-2 [22]): Active
- remaining at 0.5 h [23]: 90.5%
- Tmax [24]: 0.5 h
- Activity (MIA PaCa-2 [25]): Active
- Cmax [26]: 21.2 µM
- t1/2 [27]: > 1 h
- Activity (MIA PaCa-2 [28]): Dose-Dependent Effect
- remaining at 10 min [29]: 95.5%
- AUC(0-inf) [30]: 10 µM·h
- Activity (MIA PaCa-2 [31]): Active
- Cmax [32]: 10.4 µM
- IC50 (MIA PaCa-2 [2]): 14.1 µM
- Activity (MIA PaCa-2 [33]): Active
- Activity (MIA PaCa-2 [34]): Active
- remaining at 20 min [35]: 96%
- half-life [36]: 2.4 h
- IC50 [3]: 20.8 µM
- inhibition (MIA PaCa-2 [37]): Active
- AUC(0-inf) [38]: 36.4 µM·h
- Therm_solubility [39]: 7685 µg/mL
- Activity (MIA PaCa-2 [40]): Active
- F [41]: 33%

Structure (SMILES): O=C(CC(C(=O)O)c1ccc(C(F)(F)F)cc1)Nc1ccc(N2CCOCC2)c(Cl)c1 (stereo unspecified)
- IC50 [43]: > 100 µM
- IC50 [42]: > 100 µM

Structure (SMILES): O=C(O)CC(NC(=O)c1ccccc1Cl)c1cccc(Cl)c1 (stereo unspecified)
- IC50 [43]: > 100 µM
- IC50 [42]: > 100 µM

Structure (SMILES): O=C(CC(C(=O)O)c1ccc(C(F)(F)F)cc1)Nc1ccc(-c2cccs2)cc1 (stereo unspecified)
- IC50 [43]: > 100 µM
- IC50 [42]: > 100 µM

More lines, in order of falling IC50 [42], values ahead:

- IC50 [42]: 71.5 µM
Structure (SMILES): COC(=O)C(CC(=O)Nc1ccc(N2CCOCC2)c(F)c1)c1ccc(C(F)(F)F)cc1 (stereo unspecified)

- IC50 [42]: 66.4 µM
Structure (SMILES): COC(=O)C(CC(=O)Nc1ccc(N2CCN(C)CC2)cc1)c1ccc(C(F)(F)F)cc1 (stereo unspecified)

- IC50 [42]: 50 µM
Structure (SMILES): COC(=O)C(CC(=O)Nc1ccc(C(=O)c2nccn2C)cc1)c1ccc(OC)cc1 (stereo unspecified)

- IC50 [42]: 15.7 µM
Structure (SMILES): COC(=O)C(CC(=O)Nc1ccc(C(=O)c2ccccc2)cc1)c1ccc(C(F)(F)F)cc1 (stereo unspecified)
